Laboratory results: PubChem BioAssay AID1963446 (Molecular Pharmacology Branch, DTP, NCI, 2024)
Values joined by “and” are separate entries in the source; they are usually repeats but may differ in a detail not shown here. Equal entries are not always repeated.

Test system: 993429-296-R-J1-PDC complex spheroid growth, percent test/control
Experiment: Anticancer human tumor 993429-296-R-J1-PDC patient-derived uterine sarcoma cell line growth inhibition [Asc]
Conditions: for viability, T/C: stronger effect = lower value
Procedure, shortened: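 Spheroid model: tumor line + HUVEC + hMSC. Single agents and combinations; top conc. at/near clinical Cmax (10 microM if undetermined), half-log dilutions. DMSO stocks at 800-fold test concentration.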

[1] = curve of first compound, second compound 0.01 µM
[2] = curve of first compound, second compound 0.0316 µM
[3] = curve of first compound, second compound 0.1 µM
[4] = curve of first compound, second compound 0.316 µM
[5] = curve of first compound, second compound 1 µM
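Also: spheroids exposed to compounds for seven days.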

## NC(=O)C(=Cn1cnc(-c2cc(C(F)(F)F)cc(C(F)(F)F)c2)n1)c1cncnc1 + CCN1C(C(=O)NC23CCC(C(=O)O)(CC2)CC3)C(c2cccc(Cl)c2F)C2(C(=O)Nc3cc(Cl)ccc32)C12CCCCC2
Curve of first compound, second compound 0.03 µM
  IC50: 18.6 nM
Curve of first compound, second compound 0.0949 µM
  IC50: 15.5 nM
Curve of first compound, second compound 0.3 µM
  IC50: 14 nM
Curve of first compound, second compound 0.949 µM
  IC50: 20.3 nM
Curve of first compound, second compound 3 µM
  IC50: 13.3 nM
Second compound 0.03 µM, first compound 0.000949 µM
  viability, T/C: 98%
Second compound 0.03 µM, first compound 0.003 µM
  viability, T/C: 97.9%
Second compound 0.03 µM, first compound 0.00949 µM
  viability, T/C: 71%
Second compound 0.03 µM, first compound 0.03 µM
  viability, T/C: 34%
Second compound 0.03 µM, first compound 0.0949 µM
  viability, T/C: 17.8%
Second compound 0.03 µM, first compound 0.3 µM
  viability, T/C: 9.36%
Second compound 0.0949 µM, first compound 0.000949 µM
  viability, T/C: 95.3%
Second compound 0.0949 µM, first compound 0.003 µM
  viability, T/C: 87%
Second compound 0.0949 µM, first compound 0.00949 µM
  viability, T/C: 63.4%
Second compound 0.0949 µM, first compound 0.03 µM
  viability, T/C: 31.9%
Second compound 0.0949 µM, first compound 0.0949 µM
  viability, T/C: 14.9%
Second compound 0.0949 µM, first compound 0.3 µM
  viability, T/C: 8.83%
Second compound 0.3 µM, first compound 0.000949 µM
  viability, T/C: 89.3%
Second compound 0.3 µM, first compound 0.003 µM
  viability, T/C: 85.6%
Second compound 0.3 µM, first compound 0.00949 µM
  viability, T/C: 55.4%
Second compound 0.3 µM, first compound 0.03 µM
  viability, T/C: 33.4%
Second compound 0.3 µM, first compound 0.0949 µM
  viability, T/C: 19.7%
Second compound 0.3 µM, first compound 0.3 µM
  viability, T/C: 9.08%
Second compound 0.949 µM, first compound 0.000949 µM
  viability, T/C: 83%
Second compound 0.949 µM, first compound 0.003 µM
  viability, T/C: 90%
Second compound 0.949 µM, first compound 0.00949 µM
  viability, T/C: 83.3%
Second compound 0.949 µM, first compound 0.03 µM
  viability, T/C: 33%
Second compound 0.949 µM, first compound 0.0949 µM
  viability, T/C: 14%
Second compound 0.949 µM, first compound 0.3 µM
  viability, T/C: 7.67%
Second compound 3 µM, first compound 0.000949 µM
  viability, T/C: 81.7%
Second compound 3 µM, first compound 0.003 µM
  viability, T/C: 87.5%
Second compound 3 µM, first compound 0.00949 µM
  viability, T/C: 55.4%
Second compound 3 µM, first compound 0.03 µM
  viability, T/C: 29.8%
Second compound 3 µM, first compound 0.0949 µM
  viability, T/C: 13%
Second compound 3 µM, first compound 0.3 µM
  viability, T/C: 8.21%

## CCN1CCN(Cc2ccc(Nc3ncc(F)c(-c4cc(F)c5nc(C)n(C(C)C)c5c4)n3)nc2)CC1 + CNC(C)C(=O)NC1CN(S(=O)(=O)c2cccc(S(=O)(=O)N3CCC4CCC(C(=O)NC(c5ccccc5)c5ccccc5)N4C(=O)C(NC(=O)C(C)NC)C3)c2)CCC2CCC(C(=O)NC(c3ccccc3)c3ccccc3)N2C1=O
[1]
  IC50: > 1000 nM
[2]
  IC50: > 1000 nM
[3]
  IC50: > 1000 nM
[4]
  IC50: < 3.16 nM
[5]
  IC50: > 1000 nM
Second compound 0.01 µM, first compound 0.00316 µM
  viability, T/C: 58.4%
Second compound 0.01 µM, first compound 0.01 µM
  viability, T/C: 66.1%
Second compound 0.01 µM, first compound 0.0316 µM
  viability, T/C: 64%
Second compound 0.01 µM, first compound 0.1 µM
  viability, T/C: 68.4%
Second compound 0.01 µM, first compound 0.316 µM
  viability, T/C: 67.7%
Second compound 0.01 µM, first compound 1 µM
  viability, T/C: 76%
Second compound 0.0316 µM, first compound 0.00316 µM
  viability, T/C: 54.1%
Second compound 0.0316 µM, first compound 0.01 µM
  viability, T/C: 63.4%
Second compound 0.0316 µM, first compound 0.0316 µM
  viability, T/C: 59.5%
Second compound 0.0316 µM, first compound 0.1 µM
  viability, T/C: 53.6%
Second compound 0.0316 µM, first compound 0.316 µM
  viability, T/C: 71.4%
Second compound 0.0316 µM, first compound 1 µM
  viability, T/C: 77.4%
Second compound 0.1 µM, first compound 0.00316 µM
  viability, T/C: 52%
Second compound 0.1 µM, first compound 0.01 µM
  viability, T/C: 54%
Second compound 0.1 µM, first compound 0.0316 µM
  viability, T/C: 56.2%
Second compound 0.1 µM, first compound 0.1 µM
  viability, T/C: 54%
Second compound 0.1 µM, first compound 0.316 µM
  viability, T/C: 59.8%
Second compound 0.1 µM, first compound 1 µM
  viability, T/C: 62.4%
Second compound 0.316 µM, first compound 0.00316 µM
  viability, T/C: 45.3%
Second compound 0.316 µM, first compound 0.01 µM
  viability, T/C: 46.2%
Second compound 0.316 µM, first compound 0.0316 µM
  viability, T/C: 41%
Second compound 0.316 µM, first compound 0.1 µM
  viability, T/C: 53.2%
Second compound 0.316 µM, first compound 0.316 µM
  viability, T/C: 69%
Second compound 0.316 µM, first compound 1 µM
  viability, T/C: 70%
Second compound 1 µM, first compound 0.00316 µM
  viability, T/C: 53.5%
Second compound 1 µM, first compound 0.01 µM
  viability, T/C: 58.7%
Second compound 1 µM, first compound 0.0316 µM
  viability, T/C: 38.9%
Second compound 1 µM, first compound 0.1 µM
  viability, T/C: 51.4%
Second compound 1 µM, first compound 0.316 µM
  viability, T/C: 49.6%
Second compound 1 µM, first compound 1 µM
  viability, T/C: 60.3%

## Cc1nc(N2CCC3(CC2)COC(C)C3N)c(CO)nc1Sc1ccnc(N)c1Cl (configuration not stated) + CNC(C)C(=O)NC1CN(S(=O)(=O)c2cccc(S(=O)(=O)N3CCC4CCC(C(=O)NC(c5ccccc5)c5ccccc5)N4C(=O)C(NC(=O)C(C)NC)C3)c2)CCC2CCC(C(=O)NC(c3ccccc3)c3ccccc3)N2C1=O
[1]
  IC50: 103 nM
[2]
  IC50: 84.7 nM
[3]
  IC50: 56.8 nM
[4]
  IC50: < 9.49 nM
[5]
  IC50: 107 nM
Second compound 0.01 µM, first compound 0.00949 µM
  viability, T/C: 68.6%
Second compound 0.01 µM, first compound 0.03 µM
  viability, T/C: 61.1%
Second compound 0.01 µM, first compound 0.0949 µM
  viability, T/C: 49.5%
Second compound 0.01 µM, first compound 0.3 µM
  viability, T/C: 42.5%
Second compound 0.01 µM, first compound 0.949 µM
  viability, T/C: 37%
Second compound 0.01 µM, first compound 3 µM
  viability, T/C: 32.2%
Second compound 0.0316 µM, first compound 0.00949 µM
  viability, T/C: 67.5%
Second compound 0.0316 µM, first compound 0.03 µM
  viability, T/C: 57.5%
Second compound 0.0316 µM, first compound 0.0949 µM
  viability, T/C: 50.9%
Second compound 0.0316 µM, first compound 0.3 µM
  viability, T/C: 39.4%
Second compound 0.0316 µM, first compound 0.949 µM
  viability, T/C: 36.7%
Second compound 0.0316 µM, first compound 3 µM
  viability, T/C: 30.9%
Second compound 0.1 µM, first compound 0.00949 µM
  viability, T/C: 60.1%
Second compound 0.1 µM, first compound 0.03 µM
  viability, T/C: 54.9%
Second compound 0.1 µM, first compound 0.0949 µM
  viability, T/C: 45.2%
Second compound 0.1 µM, first compound 0.3 µM
  viability, T/C: 39.8%
Second compound 0.1 µM, first compound 0.949 µM
  viability, T/C: 29%
Second compound 0.1 µM, first compound 3 µM
  viability, T/C: 28.3%
Second compound 0.316 µM, first compound 0.00949 µM
  viability, T/C: 43.6%
Second compound 0.316 µM, first compound 0.03 µM
  viability, T/C: 48.9%
Second compound 0.316 µM, first compound 0.0949 µM
  viability, T/C: 51.9%
Second compound 0.316 µM, first compound 0.3 µM
  viability, T/C: 41.3%
Second compound 0.316 µM, first compound 0.949 µM
  viability, T/C: 32.4%
Second compound 0.316 µM, first compound 3 µM
  viability, T/C: 29.2%
Second compound 1 µM, first compound 0.00949 µM
  viability, T/C: 53.1%
Second compound 1 µM, first compound 0.03 µM
  viability, T/C: 48.1%
Second compound 1 µM, first compound 0.0949 µM
  viability, T/C: 52.2%
Second compound 1 µM, first compound 0.3 µM
  viability, T/C: 40%
Second compound 1 µM, first compound 0.949 µM
  viability, T/C: 20.5%
Second compound 1 µM, first compound 3 µM
  viability, T/C: 26.7%

## CCN1CCN(Cc2ccc(Nc3ncc(F)c(-c4cc(F)c5nc(C)n(C(C)C)c5c4)n3)nc2)CC1
Compound 0.00316 µM
  viability, T/C: 90.1% (2×) and 100%
Compound 0.01 µM
  viability, T/C: 86.7% and 111% and 99.3%
Compound 0.0316 µM
  viability, T/C: 94.1% and 105% and 92.7%
Compound 0.1 µM
  viability, T/C: 85.6% and 98.3% and 93.6%
Compound 0.316 µM
  viability, T/C: 98.6% and 119% and 100%
Compound 1 µM
  viability, T/C: 88.5% and 94.9% and 86.3%
Curve of compound
  IC50: > 1000 nM
